Source: patent US12263248B2, “Compounds and compositions for intracellular delivery of therapeutic agents” (ModernaTX, Inc., priority 2018, dated 2025)
Entries after “also recorded” stand apart in the source; their conditions may differ.

Experiments:
[1] = Particle size and polydispersity index of nanoparticle compositions (Zetasizer Nano ZS); format: physicochemical; conditions: for PDI (Polydispersity index): lipid nanoparticle, ±SD within one assay run (Table 37)
Procedure, shortened: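 Particle size and PDI were measured on a Zetasizer Nano ZS with the nanoparticle compositions dispersed in 1×PBS.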

luciferase (Luc) mRNA [2] = assay: Luc expression, whole body bioluminescence after intravenous administration to mice; format: in vivo; conditions: for Total Flux 3 hours / Total Flux 6 hours / Total Flux 24 hours: Luc mRNA; for Fold increase in total body Luc Flux relative to MC3 at 6 h: Table 3A
Procedure, shortened: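 Luc mRNA nanoparticle formulations given intravenously to mice (n=6) at 0.5 mg/kg; whole-body bioluminescence imaged at 3, 6 and 24 h. CD-1 mice received IP D-luciferin (200 μL of 15 mg/mL) 15 min before imaging; total flux quantified by region of interest.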

luciferase (Luc) mRNA [3] = assay: Luc expression in liver, lung, spleen and femur 6 hours after intravenous administration; format: in vivo; conditions: mice, 0.5 mpk; for Total Flux Femur / Total Flux Liver / Total Flux Lung / Total Flux Spleen: intravenous; for Flux in the liver: i.v., in words
Procedure, shortened: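 LNP-formulated mRNA given IV to mice (n=3) at 0.5 mpk; at 6 h, bioluminescence imaged ex vivo 15 min after IP D-luciferin (15 mg/mL, 200 μL), organs imaged within 25 min. Values are total flux by region of interest.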

luciferase mRNA = assay: Luciferase expression after subcutaneous administration to mice; format: in vivo, female CD-1 mice; conditions: 0.5 mpk, relative to MC3
Description: The effect of the lipids of the disclosure on protein expression upon subcutaneous administration was studied. Formulations containing lipids of the disclosure and an mRNA expressing luciferase or hEPO were administered subcutaneously to female CD-1 mice at 0.5 mpk. Expression levels were obtained via whole body luminescent imaging (BLI) at 3, 6 and 24 hours after injection and expression levels in liver, spleen and at the injection site were evaluated ex vivo after 24 hours. […] See also Tables 35 and 36, and FIGS. 19 and 27.
Table 35 summarizes the luciferase expression levels using various nanoparticle compositions of the disclosure, and the luciferase expression levels using various nanoparticle compositions of the disclosure as compared to the luciferase expression level using an MC3 formulation after subcutaneous administration, as described above.

[4] = Table 1A, lipid:DSPC:cholesterol:PEG-DMG 50:10:38.5:1.5 mol %
[5] = Table 1E, compositions for subcutaneous administration
[6] = Table 1B, formulated with hEPO mRNA

| SMILES | PDI ([1]; Table 1A) | Size (nm) [1, 4] [nm] | Total Flux 3 hours (luciferase (Luc) mRNA [2]; mice, i.v., 0.5 mg/kg) | Total Flux 6 hours (luciferase (Luc) mRNA [2]; mice, i.v., 0.5 mg/kg) | Total Flux 24 hours (luciferase (Luc) mRNA [2]; mice, i.v., 0.5 mg/kg) | Total Flux Femur (luciferase (Luc) mRNA [3]) | Total Flux Liver (luciferase (Luc) mRNA [3]) | Total Flux Lung (luciferase (Luc) mRNA [3]) | Total Flux Spleen (luciferase (Luc) mRNA [3]) | Fold increase in total body Luc Flux relative to MC3 at 6 h (luciferase (Luc) mRNA [2]; i.v. administration) | other results |
| --- | --- | --- | --- | --- | --- | --- | --- | --- | --- | --- | --- |
| CCCCCCCCCOC(=O)CCCCCCCN(CCO)CCCCCCCCCC(=O)OC(CCCCCCCC)CCCCCCCC [Compound 23, Heptadecan-9-yl 10-((2-hydroxyethyl)(8-(nonyloxy)-8-oxooctyl)amino) decanoate] | 0.09 | 104.5 | 1.83E+09 | 1.15E+09 | 3.71E+08 | 1.19E+06 | 2.92E+08 | 1.82E+06 | 3.08E+07 |  | PDI [1, 5]: 0.13; Size (nm) [1, 5]: 70.5 nm; Novel lipid/MC3 expression ratio, 6 hr. time point, s.c. Luc 0.5 mpk (luciferase mRNA): 1.02 |
| CCCCCCCCCOC(=O)CCCCCCCN(CCCO)CCCCCCCC(=O)OC(CCCCCCCC)CCCCCCCC [Compound 19, Heptadecan-9-yl 8-((3-hydroxypropyl)(8-(nonyloxy)-8-oxooctyl)amino) octanoate] | 0.17 | 101.1 | 3.38E+10 | 3.56E+09 | 4.68E+08 | 1.68E+06 | 6.33E+08 | 5.99E+06 | 1.77E+07 | 0.96 | PDI [1, 5]: 0.13; Size (nm) [1, 5]: 80.7 nm; Novel lipid/MC3 expression ratio, 6 hr. time point, s.c. Luc 0.5 mpk (luciferase mRNA): 2.13 |
| CCCCCCCCCOC(=O)CCCCCCCN(CCO)CCCCCCCC(=O)OCCCCCCCCC [Compound 138, Dinonyl 8,8′-((2-hydroxyethyl)azanediyl)dioctanoate] | <0.5 | 179.4 | 2.97E+07 | 2.30E+07 | 1.63E+06 | 1.58E+05 | 3.66E+06 | 9.47E+04 | 4.04E+06 |  | PDI (Polydispersity index) [1]: 0.14 ± 0.05 |
| CCCCCCCCCOC(=O)CCCN(CCO)CCCCCCCC(=O)OC(CCCCCCCC)CCCCCCCC [Compound 26, Heptadecan-9-yl 8-((2-hydroxyethyl)(4-(nonyloxy)-4-oxobutyl)amino) octanoate] | 0.16 | 91.9 | 6.75E+10 | 1.57E+10 | 1.54E+09 | 4.67E+06 | 2.90E+09 | 1.18E+07 | 1.56E+07 | 4.24 | PDI (Polydispersity index) [1]: 0.16 ± 0.03; PDI ([1]; nanoparticle composition with hEPO mRNA (Table 30)): 0.120; Lipid/MC3 Luc expression (luciferase (Luc) mRNA [2]; 0.5 mpk dose to mouse, 6 hours after administration): 4.24; fold increase in Luc expression over MC3 formulations (luciferase (Luc) mRNA [2]; intravenous administration, in words): highest fold increase; Fold increase in Luc expression relative to MC3, Intravenous (0.5 mpk dose) (luciferase (Luc) mRNA [2]; intravenous): 4.24; luciferase activity relative to MC3 LNP control (luciferase (Luc) mRNA [2]; mice, intravenous, 0.5 mg/kg (mRNA dose), 0.5 mg/kg): higher expression compared to MC3; also recorded: highest luciferase activity of the series |
| CCCCCCCCCN(CCO)CCCCCCCC(=O)OC(CCCCCCCC)CCCCCCCC [Compound 3, Heptadecan-9-yl 8-((2-hydroxyethyl)(nonyl)amino)octanoate] | 0.20 | 97.5 | 6.55E+10 | 7.37E+10 | 4.96E+09 | 7.36E+06 | 1.39E+10 | 4.76E+07 | 1.47E+08 | 2.24 | Fold increase in Luc expression relative to MC3, Intravenous (0.5 mpk dose) (luciferase (Luc) mRNA [2]; intravenous): 2.24; Flux in the liver (luciferase (Luc) mRNA [3]): highest |
| CCCCCCCCC(CCC)OC(=O)CCCCCCCN(CCO)CCCCCCCC(=O)OC(CCCCCCCC)CCCCCCCC (stereo not shown) [Compound 50, dodecan-4-yl 8-((8-(heptadecan-9-yloxy)-8-oxooctyl)(2-hydroxyethyl)amino)octanoate] | 0.100 | 68.4 | 3.81E+10 | 7.49E+10 | 5.02E+08 |  | 6.30E+09 | 2.81E+07 | 1.14E+08 | 6.81 | flux measured at 6 h relative to the MC3 formulation (luciferase (Luc) mRNA [2]; i.v. administration, in words): higher flux than MC3 formulations |
| CCCCCCCCC(CCCCCCCC)OC(=O)CCCCCCCN(CCO)CCCCCCCC(=O)OCC1CC1CCCCCC (stereo not shown) [Compound 28, Heptadecan-9-yl 8-((8-((2-hexylcyclopropyl)methoxy)-8-oxooctyl)(2-hydroxyethyl)amino)octanoate] | 0.20 | 99.4 | 8.98E+10 | 1.13E+11 | 1.20E+09 |  | 1.22E+10 | 2.17E+08 | 1.80E+08 | 2.46 | total flux at 3 hours (luciferase (Luc) mRNA [2]; mice, i.v., 0.5 mg/kg, comparison in words): highest; Flux in the liver (luciferase (Luc) mRNA [3]): highest |
| CCCCCCCCC(CCCCCCCC)OC(=O)CCCCCCCN(CCO)CCCCCC [Compound 5, Heptadecan-9-yl 8-(hexyl(2-hydroxyethyl)amino)octanoate] | 0.21 | 196.4 | 2.77E+08 | 1.76E+08 | 2.40E+07 | 1.22E+06 | 5.84E+07 | 1.89E+06 | 1.55E+08 | 0.005 |  |
| CCCCCCCCCOC(=O)CCCCCCCN(CCO)CCCCCCCC(=O)N(CCCCCCCC)CCCCCCCC [Compound 144, Nonyl 8-((8-(dioctylamino)-8-oxooctyl)(2-hydroxyethyl)amino)octanoate] | 0.22 | 135.9 | 9.50E+09 | 1.82E+09 | 3.36E+08 | 2.44E+06 | 3.75E+08 | 4.81E+06 | 5.11E+07 |  |  |
| CCCCCCCCCOC(=O)CCCCCCCN(CCCCCCCC(=O)OC(CCCCCCCC)CCCCCCCC)C[C@H](C)O [Compound 12, Heptadecan-9-yl (S)-8-((2-hydroxypropyl)(8-(nonyloxy)-8-oxooctyl)amino)octanoate] | 0.17 | 116.7 | 5.14E+09 | 1.27E+10 | 2.45E+08 |  | 6.84E+08 | 7.45E+06 | 6.82E+07 |  |  |
| CCCCCCCCCOC(=O)CCCCCCCN(CCO)CCCCCCCCCC(=O)OC(CCCCCC)CCCCCC [Compound 147, Tridecan-7-yl 10-((2-hydroxyethyl)(8-(nonyloxy)-8-oxooctyl)amino)decanoate] | 0.130 | 99.5 | 3.24E+10 | 4.87E+10 | 3.32E+08 |  | 5.24E+09 | 6.73E+06 | 8.57E+07 |  | PDI [1, 6]: 0.22; Size (nm) [1, 6]: 111.9 nm; 6 h Lipid/MC3 Avg. Luc Expression (luciferase (Luc) mRNA [2]; Table 3C, i.v. administration): 6.68; Fold increase AUC Lipid/MC3 (luciferase (Luc) mRNA [2]; Table 3C, i.v. administration): 6.83; AUC (h * p/s) (luciferase (Luc) mRNA [2]; Table 3C, i.v. administration, Luc): 5.63E+11 h * p/s |
| CCCCCCCCCOC(=O)CCCCCCCN(CCO)CCCCCCC(=O)OCC(CCCCCCCC)CCCCCCCC [Compound 143, Nonyl 8-((2-hydroxyethyl)(7-((2-octyldecyl)oxy)-7-oxoheptyl)amino)octanoate] | 0.21 | 98.8 | 1.76E+10 | 2.03E+10 | 2.47E+08 |  | 1.76E+09 | 3.60E+07 | 1.42E+08 |  |  |
| CCCCCCCCCCCCCCN(CCO)CCCCCCCC(=O)OC(CCCCCCCC)CCCCCCCC [Compound 2, Heptadecan-9-yl 8-((2-hydroxyethyl)(tetradecyl)amino)octanoate] | 0.14 | 83.9 | 1.93E+10 | 4.31E+10 | 2.43E+09 | 3.86E+06 | 4.87E+09 | 2.52E+07 | 5.77E+07 | 1.31 |  |
